Test results published in patent US4751217A, “Physiologically active substances named SEN-366” (Nippon Shinyaku Co., Ltd., priority 1984, dated 1988).
In brackets after ≈: the same amount, converted by molar mass. Entries after “also recorded” stand apart in the source; their conditions may differ.

Experiments:
[1] = tested on: platelet aggregation (collagen); assay: Inhibitory action against platelet aggregation, inducer collagen; assay type: cell-based; settings: for IC50: Oryctolagus cuniculus, Platelet, collagen 10 μg/ml, rabbit PRP; for IC50 Collagen 10 μg/ml: Table 2, rabbit PRP
Experimental: (§1) Inhibitory Action against Platelet Aggregation:
(§2) (1) Materials and Method:
(§3) The sample is tested after dissolved in dimethyl sulfoxide. The preparation is conducted so as to make the final concentration of the solvent 1%. Dimethyl sulfoxide of the same concentration is used as a control. As to inducers for platelet aggregation, ADP (final concentration: 5 μm), AA (arachidonic acid) (final concentration: 150 μM) and collagen (final concentration: 10 μg/ml) are used.
(§4) (2) Preparation of platelet:
Blood is taken from total neck artery of male rabbits of 2.0-2.5 kg body weight. […] The precipitate is further centrifuged at 1600×g for 10 minutes and the resulting supernatant liquid is used as plasma with poor platelet (hereinafter abbreviated as PPP).
(§5) (3) Method for Measuring Aggregation Power:
(§6) A measuring apparatus for platelet aggregation is used and the changes in absorbancy by the aggregation with an elapse of time are recorded.
(§7) Thus, 200 microliters of PRP is taken, its difference between PPP is adjusted to a certain value, then 25 microliters of control solution or test solution is added, the mixture is stirred (1000 rpm) for 1 minutes, 25 microliters of aggregation inducer is added, and the changes in absorbancy are recorded. The inhibitory ratio is calculated from the following expression from the maximum aggregation ratio of the control (A in %) and that of the test solution (B in %): [formula]
as §3, with “μM),” for “μm),”
(§8) Blood is taken from total neck artery of male rabbits of 2.0-2.5 kg body weight. To the blood is added 1/10 volume of 3.8% citric acid solution, the mixture is gently stirred, centrifuged 1300×g for 2 minutes, and the resulting supernatant liquid is used as plasma with abundant platelet (hereinafter abbreviated as PRP). The precipitate is further centrifuged at 1600×g for 10 minutes and the resulting supernatant liquid is used as plasma with poor platelet (hereinafter abbreviated as PPP).
as §7, with “minute,” for “minutes,”

[2] = tested on: platelet aggregation (ADP); assay: Inhibitory action against platelet aggregation, inducer ADP; assay type: cell-based; settings: for IC50: Oryctolagus cuniculus, Platelet, ADP 5 μM, rabbit PRP; for IC50 ADP 5 μM: Table 2, rabbit PRP
Experimental: as §1, §2, §3, §4
as §8, with “sodium citrate” for “citric acid”
as §5, §6, §7
(§9) Inhibitory ratios with varied test solution concentrations are calculated and the IC50 (50% inhibitory concentration) is calculated therefrom.
as §3, with “μM),” for “μm),”
as §8
as §7, with “minute,” for “minutes,”

[3] = tested on: platelet aggregation (AA); assay: Inhibitory action against platelet aggregation, inducer arachidonic acid (AA); assay type: cell-based; settings: for IC50: Oryctolagus cuniculus, Platelet, AA 150 μM, rabbit PRP; for IC50 AA 150 μM: Table 2, rabbit PRP
Experimental: as §1, §2, §3, §4
as §8, with “sodium citrate” for “citric acid”
as §5, §6, §7, §9
as §3, with “μM),” for “μm),”
as §8
as §7, with “minute,” for “minutes,”

[4] = Solubility; assay type: physicochemical; settings: qualitative, in named solvents

CC1OC(OC2CCC(OC3CCC(OC(=O)c4ccc(Cl)cc4)OC3C)OC2C)CCC1=O (stereo not shown) [SEN-366-CB2]
IC50 ([1]; Table 2): 1 µg/mL (≈ 2.01 µM)
IC50 ([2]; Table 2): 3.2 µg/mL (≈ 6.44 µM)
IC50 ([3]; Table 2): 6.2 µg/mL (≈ 12.5 µM)

CC1OC(OC2CCC(OC3CCC(OC(=O)c4ccc(Cl)cc4)OC3C)OC2C)C=CC1=O (stereo not shown) [SEN-366-CB3]
IC50 Collagen 10 μg/ml ([1]; listed as CB3): 0.053 µg/mL (≈ 0.107 µM)
IC50 ADP 5 μM ([2]; listed as CB3): 0.29 µg/mL (≈ 0.586 µM)
IC50 AA 150 μM ([3]; listed as CB3): 0.68 µg/mL (≈ 1.37 µM)

CC1OC(OC2CCC(OC3CCC(OC(=O)c4ccc(Cl)cc4)OC3C)OC2C)CCC1=O (stereo not shown) [SEN-366-CB4]
IC50 Collagen 10 μg/ml ([1]; listed as CB4): 1.7 µg/mL (≈ 3.42 µM)
IC50 ADP 5 μM ([2]; listed as CB4): 4.2 µg/mL (≈ 8.45 µM)
IC50 AA 150 μM ([3]; listed as CB4): > 5 µg/mL

CCOC1CCC(OC2CCC(OC3C=CC(=O)C(C)O3)C(C)O2)C(C)O1 (stereo not shown) [SEN-366-E1]
IC50 Collagen 10 μg/ml ([1]; listed as E1): 2.0 µg/mL (≈ 5.2 µM)
IC50 ([2]; Table 2): 7.2 µg/mL (≈ 18.7 µM)
IC50 ([3]; Table 2): 10.3 µg/mL (≈ 26.8 µM)

CCOC1CCC(OC2CCC(OC3CCC(=O)C(C)O3)C(C)O2)C(C)O1 (stereo not shown) [SEN-366-E2]
IC50 ([1]; Table 2): 22.1 µg/mL (≈ 57.2 µM)
IC50 ([2]; Table 2): > 100 µg/mL
IC50 ([3]; Table 2): 52 µg/mL (≈ 135 µM)

CCOC1CCC(OC2CCC(OC3C=CC(=O)C(C)O3)C(C)O2)C(C)O1 (stereo not shown) [SEN-366-E3]
IC50 Collagen 10 μg/ml ([1]; listed as E3): 4.4 µg/mL (≈ 11.4 µM)
IC50 ADP 5 μM ([2]; listed as E3): 12.4 µg/mL (≈ 32.3 µM)
IC50 AA 150 μM ([3]; listed as E3): 14.0 µg/mL (≈ 36.4 µM)

CCOC1CCC(OC2CCC(OC3CCC(=O)C(C)O3)C(C)O2)C(C)O1 (stereo not shown) [SEN-366-E4]
IC50 Collagen 10 μg/ml ([1]; listed as E4): 16.5 µg/mL (≈ 42.7 µM)
IC50 ADP 5 μM [2]: > 100 µg/mL
IC50 AA 150 μM ([3]; listed as E4): 65.0 µg/mL (≈ 168 µM)

CC1OC(OC2CCC(O)OC2C)C=CC1=O (stereo not shown) [SEN-366-F0]
IC50 ([1]; Table 3): 1.5 µg/mL (≈ 6.19 µM)
IC50 ([2]; Table 3): 9.3 µg/mL (≈ 38.4 µM)
IC50 ([3]; Table 3): 3.4 µg/mL (≈ 14 µM)

CC1OC(OC2CCC(OC3CCC(=O)OC3C)OC2C)C=CC1=O (stereo not shown) [SEN-366-L1]
IC50 ([1]; Table 2): 5 µg/mL (≈ 14.1 µM)
IC50 ([2]; Table 2): 12 µg/mL (≈ 33.9 µM)
IC50 ([3]; Table 2): 27 µg/mL (≈ 76.2 µM)

COC1CCC(OC2CCC(OC3C=CC(=O)C(C)O3)C(C)O2)C(C)O1 (stereo not shown) [SEN-366-M1]
IC50 ([1]; Table 2): 5.5 µg/mL (≈ 14.8 µM)
IC50 ([2]; Table 2): 17 µg/mL (≈ 45.9 µM)
IC50 ([3]; Table 2): 29 µg/mL (≈ 78.3 µM)

COC1CCC(OC2CCC(OC3CCC(=O)C(C)O3)C(C)O2)C(C)O1 (stereo not shown) [SEN-366-M2]
IC50 ([1]; Table 2): 16.3 µg/mL (≈ 43.8 µM)
IC50 ([2]; Table 2): 55 µg/mL (≈ 148 µM)
IC50 ([3]; Table 2): 42 µg/mL (≈ 113 µM)

COC1CCC(OC2CCC(OC3C=CC(=O)C(C)O3)C(C)O2)C(C)O1 (stereo not shown) [SEN-366-M3]
IC50 Collagen 10 μg/ml ([1]; listed as M3): 5.2 µg/mL (≈ 14 µM)
IC50 ADP 5 μM ([2]; listed as M3): 15.0 µg/mL (≈ 40.5 µM)
IC50 AA 150 μM ([3]; listed as M3): 25.0 µg/mL (≈ 67.5 µM)

COC1CCC(OC2CCC(OC3CCC(=O)C(C)O3)C(C)O2)C(C)O1 (stereo not shown) [SEN-366-M4]
IC50 Collagen 10 μg/ml ([1]; listed as M4): 18.0 µg/mL (≈ 48.3 µM)
IC50 ADP 5 μM ([2]; listed as M4): 53.0 µg/mL (≈ 142 µM)
IC50 AA 150 μM ([3]; listed as M4): 47.0 µg/mL (≈ 126 µM)

CC1OC(OC2CCC(OC3CCC(O)OC3C)OC2C)C(O)CC1=O (stereo not shown) [SEN-366-P]
IC50 ([1]; Table 1): 1.6 µg/mL (≈ 4.27 µM)
IC50 ([2]; Table 1): 4.4 µg/mL (≈ 11.8 µM)
IC50 ([3]; Table 1): 25 µg/mL (≈ 66.8 µM)
Solubility [4]: Soluble in water, methanol, ethanol, chloroform, acetone and ethyl acetate; also recorded: hardly soluble in petroleum ether and n-hexane
